# Data: patent publication US6737383B1, “Herbicidal oxadiazolidines” (priority 1999, dated 2004)
# Tests used:
# Settings in all cases: Preemergence, 0 to 100 scale
# pitted morningglory = assay: Test D pitted morningglory; type: in vivo, Ipomoea lacunosa
# Procedure, shortened: (§1)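 Each weed species is planted in its own pot or compartment; preemergence doses go on the sandy loam surface within a day. The formulation is a surfactant-containing, non-phytotoxic solvent blend. Ratings come from visual comparison with untreated controls 14 to 21 days later, where 100 means complete control.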
# dallisgrass = assay: Test D dallisgrass; type: in vivo, Paspalum dilatatum
# Description: (§2) Seeds, tubers, or plant parts of Alexandergrass (Brachiaria plantaginea), bermuda-grass (Cynodon dactylon), common pursiane (Portulaca oleracea), common ragweed (Ambrosia elatior), common groundsel (Senecio vulgaris), dallisgrass (Paspalum dilatatum), goosegrass (Eleusine indica), guineagrass (Panicum maximum), itchgrass (Rottboellia exaltata), Johnson grass (Sorghum halepense), large crabgrass (Digitaria sanguinalis), pitted morningglory (Ipomoea lacunosa), purple nutsedge (Cyperus rotundus), sandbur (Cenchrus echinatus), sourgrass (Trichachne insularis), Spanishneedles (Bidens bipinnata), surinam grass (Brachiaria decumbens) and tall mallow (Malva sylvestris) were planted into greenhouse pots of flats containing greenhouse planting medium. Plant species were grown in separate pots or individual compartments. Preemergence applications were made within one day of planting the seed or plant part.
# (§3) Test chemicals were formulated in a non-phytotoxic solvent mixture which included a surfactant and applied preemergence to the surface of the pot containing seeds in a sandy loam soil. Untreated control pots and treated pots were placed in the greenhouse for growth and visually evaluated for injury 14 to 21 days after herbicide application. Plant response ratings, summarized in Table C, are based on a 0 to 100 scale where 0 is no injury and 100 is complete control. A dash (−) response means no test result.
# surinam grass = assay: Test D surinam grass; type: in vivo, Brachiaria decumbens
# Procedure, shortened: as §1
# sandbur = assay: Test D sandbur; type: in vivo, Cenchrus echinatus
# Procedure, shortened: as §1
# bermuda-grass = assay: Test D bermudagrass; type: in vivo, Cynodon dactylon
# Description: as §2, §3
# Spanishneedles = assay: Test D Spanishneedles; type: in vivo, Bidens bipinnata
# Procedure, shortened: as §1
# common groundsel = assay: Test D common groundsel; type: in vivo, Senecio vulgaris
# Procedure, shortened: as §1
# [1] = Rate 32 g/ha, 0 no injury, 100 complete control
# [2] = Rate 64 g/ha, 0 no injury, 100 complete control
# [3] = Rate 125 g/ha, 0 no injury, 100 complete control
# [4] = Rate 16 g/ha, 0 no injury, 100 complete control
smiles,measurement,setting,value
Cc1cccc(C)c1-n1c(=O)on(C(=O)N(c2ccc(F)cc2F)C(C)C)c1=O [Compound 28],"Plant response rating, P. morninglory",pitted morningglory; [1],0
same,"Plant response rating, P. morninglory",pitted morningglory; [2],0
same,"Plant response rating, P. morninglory",pitted morningglory; [3],0
same,"Plant response rating, P. morninglory",pitted morningglory; Rate 250 g/ha,0
same,"Plant response rating, Dallisgrass",dallisgrass; [1],30
same,"Plant response rating, Dallisgrass",dallisgrass; [2],75
same,"Plant response rating, Dallisgrass",dallisgrass; [3],85
same,"Plant response rating, Dallisgrass",dallisgrass; Rate 250 g/ha,100
same,"Plant response rating, Surinam grass",surinam grass; [1],0
same,Surinam grass plant response rating,surinam grass; [2],0
same,Surinam grass plant response rating,surinam grass; [3],65
same,"Plant response rating, Surinam grass",surinam grass; Rate 250 g/ha,75
same,"Plant response rating, Sandbur",sandbur; [1],0
same,Sandbur plant response rating,sandbur; [2],0
same,Sandbur plant response rating,sandbur; [3],0
same,"Plant response rating, Sandbur",sandbur; Rate 250 g/ha,0
same,"Plant response rating, Bermudagrass",bermuda-grass; [1],85
same,"Plant response rating, Bermudagrass",bermuda-grass; [2],100
same,"Plant response rating, Bermudagrass",bermuda-grass; [3],100
same,"Plant response rating, Bermudagrass",bermuda-grass; Rate 250 g/ha,100
same,"Plant response rating, Spanishneedles",Spanishneedles; [1],0
same,Spanishneedles plant response rating,Spanishneedles; [2],60
same,Spanishneedles plant response rating,Spanishneedles; [3],75
same,"Plant response rating, Com. groundsel",common groundsel; [1],0
same,"Plant response rating, Com. groundsel",common groundsel; [2],0
same,"Plant response rating, Com. groundsel",common groundsel; [3],0
same,"Plant response rating, Com. groundsel",common groundsel; Rate 250 g/ha,0
CCn1c(=O)on(C(=O)N(c2ccc(F)cc2)C(C)C)c1=O [Compound 107],"Plant response rating, P. morninglory",pitted morningglory; [4],0
same,"Plant response rating, P. morninglory",pitted morningglory; [1],0
same,"Plant response rating, P. morninglory",pitted morningglory; [2],30
same,"Plant response rating, P. morninglory",pitted morningglory; [3],30
same,"Plant response rating, P. morninglory",pitted morningglory; Rate 250 g/ha,75
same,"Plant response rating, P. morninglory",pitted morningglory; Rate 500 g/ha,100
same,"Plant response rating, Dallisgrass",dallisgrass; [4],30
same,"Plant response rating, Dallisgrass",dallisgrass; [1],85
same,"Plant response rating, Dallisgrass",dallisgrass; [2],100
same,"Plant response rating, Dallisgrass",dallisgrass; [3],100
same,"Plant response rating, Dallisgrass",dallisgrass; Rate 250 g/ha,100
same,"Plant response rating, Dallisgrass",dallisgrass; Rate 500 g/ha,100
same,"Plant response rating, Surinam grass",surinam grass; [4],30
same,"Plant response rating, Surinam grass",surinam grass; [1],75
same,Surinam grass plant response rating,surinam grass; [2],100
same,Surinam grass plant response rating,surinam grass; [3],100
same,"Plant response rating, Surinam grass",surinam grass; Rate 250 g/ha,100
same,"Plant response rating, Surinam grass",surinam grass; Rate 500 g/ha,100
same,"Plant response rating, Sandbur",sandbur; [4],30
same,"Plant response rating, Sandbur",sandbur; [1],30
same,Sandbur plant response rating,sandbur; [2],65
same,Sandbur plant response rating,sandbur; [3],98
same,"Plant response rating, Sandbur",sandbur; Rate 250 g/ha,100
same,"Plant response rating, Sandbur",sandbur; Rate 500 g/ha,100
same,"Plant response rating, Bermudagrass",bermuda-grass; [4],85
same,"Plant response rating, Bermudagrass",bermuda-grass; [1],100
same,"Plant response rating, Bermudagrass",bermuda-grass; [2],100
same,"Plant response rating, Bermudagrass",bermuda-grass; [3],100
same,"Plant response rating, Bermudagrass",bermuda-grass; Rate 250 g/ha,100
same,"Plant response rating, Bermudagrass",bermuda-grass; Rate 500 g/ha,100
same,"Plant response rating, Spanishneedles",Spanishneedles; [4],0
same,"Plant response rating, Spanishneedles",Spanishneedles; [1],0
same,Spanishneedles plant response rating,Spanishneedles; [2],0
same,Spanishneedles plant response rating,Spanishneedles; [3],20
same,"Plant response rating, Spanishneedles",Spanishneedles; Rate 500 g/ha,100
same,"Plant response rating, Com. groundsel",common groundsel; [4],40
same,"Plant response rating, Com. groundsel",common groundsel; [1],75
same,"Plant response rating, Com. groundsel",common groundsel; [2],98
same,"Plant response rating, Com. groundsel",common groundsel; [3],100
same,"Plant response rating, Com. groundsel",common groundsel; Rate 250 g/ha,100
same,"Plant response rating, Com. groundsel",common groundsel; Rate 500 g/ha,100
C=C(C)Cn1c(=O)on(C(=O)N(c2ccc(F)cc2)C(C)C)c1=O [Compound 139],"Plant response rating, P. morninglory",pitted morningglory; [2],30
same,"Plant response rating, Dallisgrass",dallisgrass; [2],90
same,Surinam grass plant response rating,surinam grass; [2],20
same,Sandbur plant response rating,sandbur; [2],40
same,"Plant response rating, Bermudagrass",bermuda-grass; [2],98
same,Spanishneedles plant response rating,Spanishneedles; [2],20
same,"Plant response rating, Com. groundsel",common groundsel; [2],0
